Experimental data reported in the NIST ThermoML archive (doi:10.1021/je034209e).
Numbers after ± are expanded uncertainties.

Test: mn = molality of the nth substance listed, in mol/kg
Conditions: 298.15 K, 101.3 kPa, Liquid, Vibrating tube method

N[C@@H](Cc1ccccc1)C(=O)O [L-phenylalanine] + O
Conditions	mass density [kg/m3]
m1 = 0.01545	997.721 ± 1.7
m1 = 0.02099	997.961 ± 1.7
m1 = 0.02977	998.343 ± 1.7
m1 = 0.03372	998.516 ± 1.7
m1 = 0.04624	999.058 ± 1.7
m1 = 0.05305	999.349 ± 1.7
m1 = 0.05832	999.577 ± 1.7

CCC(N)C(=O)O (stereo not drawn) [(.+-.)-α-aminobutyric acid] + O
Conditions	mass density [kg/m3]
m1 = 0.03934	998.127 ± 1.7
m1 = 0.08124	999.275 ± 1.7
m1 = 0.1445	1000.99 ± 1.7
m1 = 0.2022	1002.54 ± 1.7
m1 = 0.2374	1003.48 ± 1.8
m1 = 0.2864	1004.78 ± 1.8
m1 = 0.3179	1005.6 ± 1.8

CC(C)C[C@H](N)C(=O)O [L-leucine] + O
Conditions	mass density [kg/m3]
m1 = 0.01266	997.346 ± 1.7
m1 = 0.01738	997.458 ± 1.7
m1 = 0.02274	997.582 ± 1.7
m1 = 0.03028	997.762 ± 1.7
m1 = 0.03943	997.975 ± 1.7
m1 = 0.04666	998.149 ± 1.7
m1 = 0.05611	998.37 ± 1.7

CC(=O)[O-].[Na+] [sodium ethanoate] + O
Conditions	mass density [kg/m3]
m1 = 0.5	1023.28 ± 1.8
m1 = 1	1047.56 ± 1.8
m1 = 2	1086.81 ± 1.9
m1 = 4	1123.24 ± 2
m1 = 5.5	1139.16 ± 2

CC(N)C(=O)O (stereo not drawn) [DL-2-aminopropanoic acid] + O
Conditions	mass density [kg/m3]
m1 = 0.0436	998.297 ± 1.7
m1 = 0.08036	999.343 ± 1.7
m1 = 0.1483	1001.26 ± 1.7
m1 = 0.2059	1002.86 ± 1.7
m1 = 0.3297	1006.26 ± 1.8
m1 = 0.3863	1007.79 ± 1.8
m1 = 0.4436	1009.33 ± 1.8

NCC(=O)O [2-aminoacetic acid] + O
Conditions	mass density [kg/m3]
m1 = 0.09741	1000.14 ± 1.7
m1 = 0.2011	1003.37 ± 1.7
m1 = 0.3016	1006.46 ± 1.8
m1 = 0.3936	1009.25 ± 1.8
m1 = 0.4878	1012.07 ± 1.8
m1 = 0.5916	1015.1 ± 1.8
